Measurements reported in US9221875B2, “Amphiphilic peptides for treatment of keratitis” (Agency for Science, Technology and Research, priority 2013, dated 2015).
≈ marks a conversion by molar mass, not a printed value. Like-named read-outs stand apart in the source and are kept apart here. Marks after values point to notes of the source that are not given here. Peptide text beside a SMILES is read from it.

Columns and labels:
C. albicans [1] = test system: C. albicans
P. aeruginosa [2] = conditions: 18 h
S. aureus biofilms [3] = experiment: Biofilm biomass, crystal violet staining; assay type: cell-based, Staphylococcus aureus; conditions: MIC, 4×MIC, 8×MIC, 24 h
Protocol: The biomass of the biofilms was estimated by a crystal violet staining assay. Briefly, the formed biofilms were first treated with the peptides for 24 h as described above. After aspirating the culture medium, the biofilms were washed once with PBS, fixed with methanol for 15 min at room temperature and stained with 100 μL of 0.1% (weight by volume) crystal violet for 10 min. The excess crystal violet dye was removed by rinsing the wells with DI water for five times. The dye that is associated with the biofilm was extracted using 100 μL of 33% glacial acetic acid per well and quantified by measuring the absorbance at a wavelength of 570 nm using a microplate reader (TECAN, Switzerland). The relative amount of biomass remaining after peptide treatment was expressed as a percentage of the control treated with broth containing 10% (by volume) of water. Data represent mean±standard deviations of four replicates per concentration.

C. albicans [4] = conditions: 42 h
rabbit red blood cells = assay type: cell-based; conditions: red cells of rabbit, 1 h
[5] = test system: Vancomycin-resistant Enterococci; conditions: clinical isolate
S. aureus [6] = conditions: 18 h
P. aeruginosa [7] = conditions: 18 h; remark: listed apart in the source
[8] = Acute in vivo toxicity, intravenous tail vein injection; conditions: mouse, mice
Protocol: For the β-sheet forming peptides to qualify as suitable therapeutic candidates, their antimicrobial activities should be considered in the light of their selectivity for microbial cell membranes so as to minimize toxicities towards mammalian cells. […] The selectivity indices (SIs) of the peptides were further evaluated as a comparison of the safety and efficacies of the different peptide sequences (Table 2). SIs of the various peptides were calculated as the ratio of the HC10 value (defined as the lowest peptide concentration that induces 10% or more haemolysis) to the GM (geometric mean MICs of the 5 microbial strains tested). […] The acute in vivo toxicity testing was performed via intravenous tail vein injection of solutions containing representative peptides of n=2 [(IRIK)2-NH2 (SEQ ID NO: 17)] and n=3 [(IRVK)3-NH2 (SEQ ID NO: 22)] repeat units in mice.

S. aureus [9] = conditions: 18 h; remark: listed apart in the source
[10] = test system: 5 microorganisms tested (S. epidermidis, S. aureus, E. coli, P. aeruginosa, C. albicans); experiment: Mean MIC over the panel and selectivity index (Example 1); assay type: cell-based
Protocol: Red blood cells suspension incubated with PBS was used as negative control.

[11] = test system: clinically isolated Mycobacterium tuberculosis
P. aeruginosa [12] = experiment: MBC against clinical isolates; assay type: cell-based; conditions: clinical isolate
[13] = test system: Methicillin-resistant S. aureus; conditions: clinical isolate
E. coli [14] = conditions: 18 h
S. epidermidis [15] = conditions: 18 h
E. coli [16] = conditions: 18 h; remark: listed apart in the source
[17] = test system: LPS-stimulated NO production in NR8383 rat macrophage cell line; experiment: Endotoxin neutralization assay (Griess nitrite); assay type: cell-based; conditions: 125 mg L^−1 peptide, 100 ng mL^−1 LPS, 18 h
Protocol: Untreated cells and cells that were stimulated with LPS alone served as the […] controls, respectively. The amount of NO produced was estimated by quantifying the concentration of the stable NO metabolite nitrite in the isolated supernatant fractions using the Griess reagent (1% sulphanilamide, 0.1% N-1-napthylethylenediamine dihydrochloride, 5% phosphoric acid) according to the manufacturer's protocol. The absorbance was measured at 540 nm and nitrite concentrations were determined using a standard reference curve prepared from known concentrations of NaNO2 solutions.

C. neoformans = experiment: MBC against clinical isolates; assay type: cell-based; conditions: clinical isolate
[18] = test system: 5 microorganisms tested (S. epidermidis, S. aureus, E. coli, P. aeruginosa, C. albicans); experiment: Mean MIC over the panel and selectivity index (Example 2)
E. coli and S. aureus = experiment: FE-SEM imaging of treated bacteria (Example 1); assay type: cell-based, Escherichia coli, Staphylococcus aureus; conditions: 2 h treatment
Protocol: E. coli suspension at ˜3×10^8 CFU ml^−1 (100 μL) was incubated with an equal volume of broth containing 20% (by volume) of water and a lethal dose (250 mg L^−1) of a representative peptide in a 96 well-plate for 2 h. Eight replicates of each condition was pooled into a microfuge tube, pelleted down at 5000×g for 5 min, and rinsed twice with PBS. The samples were then fixed with 4% formaldehyde at room temperature for 15 min, followed by rinsing with DI water. Dehydration of the cells was performed using a series of graded ethanol solutions (35, 50, 75, 90, 95 and 100%). The samples were allowed to air-dry, mounted on carbon table, and sputter coated with platinum for imaging with a FE-SEM setup (JEOL JSM-7400F, Japan).

S. epidermidis [19] = conditions: 18 h; remark: listed apart in the source
S. aureus biofilms [20] = assay type: cell-based, Staphylococcus aureus; conditions: 24 h; for killing of S. aureus residing in biofilms: MIC, 4×MIC, 8×MIC
Protocol: The wells were then rinsed once with 100 μL of PBS to remove planktonic cells and loosely attached cells, and replenished with 100 μL of fresh broth. Biofilm formation was allowed to proceed up to 6-8 days with daily rinsing and media changes before use in experiments. […] Subsequently, the solutions were removed and 120 μL of activated XTT solution was added into each well. […] Relative cell viability was expressed as [(A490-[…])sample/(A490-[…])control]×100%.

C. albicans keratitis = experiment: Contact lens-associated C. albicans keratitis mouse model
trypsin and proteinase K = assay type: in vitro ADME
Protocol: One of the major factors limiting the clinical utility of AMPs lies in their instability to rapid degradation by proteases which are present abundantly in biological fluids and/or secreted by microorganisms. In order to evaluate the proteolytic stability of the designed β-sheet forming peptides, the D- and L-isoforms of the n=2 peptide sequence (IK8-all D or IK8-all L, respectively) were treated with the broad spectrum serine proteases, trypsin and proteinase K, for 6 h and evaluated their antimicrobial activities against S. aureus, E. coli and P. aeruginosa. […] The structural integrity of synthetic peptides following treatment with both proteases was also evaluated using MALDI-TOF mass spectroscopy. […] The cleavage sites of both enzymes for the IK8-all L peptide are illustrated in FIG. 19a with the mass spectra peaks assigned to the major fragments.

F. solani = assay type: cell-based; conditions: 24 h
Protocol: The MICs of peptides were determined against the fungi C. albicans (American Type Culture Collection, ATCC) and F. solani (ATCC) by the broth microdilution method. […] F. solani, were cultured on sabouraud dextrose agar plates in incubator at 37° C. To collect conidia following incubation, conidia of F. solani species were harvested and standardized to 1×10^8 spores/ml before performing the experiments. Sabouraud dextrose broth (90 μL) was added to the wells of culture plates. […] The plates were incubated at 37° C. and examined macroscopically after 24 h for the growth of F. solani. Appropriate control wells without any treatment were included in the study. Peptide were considered to be active if the wells appeared clear without any visible growth of F. solani, and the results were expressed as MIC. The assay was performed in four replicates for each concentration.

S. aureus [21] = assay type: cell-based, Staphylococcus aureus; conditions: passage 20
[22] = topical eye drops, peptides 3000 mg/L, amphotericin B 1000 mg/L

| Structure (SMILES) | MIC C. albicans (C. albicans [1]) [µg/mL] | MIC P aeruginosa (P. aeruginosa [2]) [µg/mL] | amount of biomass in the treated biofilms (S. aureus biofilms [3]) | MIC C. albicans (C. albicans [4]) [µg/mL] | HC10, haemolysis concentration 10%: lowest peptide concentration that induces ≧10% haemolysis (rabbit red blood cells) | MBC Vancomycin-resistant Enterococci [5] [µg/mL] | MIC S. aureus (S. aureus [6]) [µg/mL] | MIC P. aeruginosa (P. aeruginosa [7]) [µg/mL] | LD50 [8] [mg/kg] | MIC S. aureus (S. aureus [9]) [µg/mL] | GM, geometric mean of MIC values for the 5 microorganisms tested [10] [µg/mL] | MBC P. aeruginosa (P. aeruginosa [12]) [µg/mL] | MBC Methicillin-resistant S. aureus [13] [µg/mL] | MIC E. coli (E. coli [14]) [µg/mL] | MIC S. epidermidis (S. epidermidis [15]) [µg/mL] | MIC E. coli (E. coli [16]) [µg/mL] | MBC C. neoformans (C. neoformans) [µg/mL] | GM, geometric mean of MIC values for the 5 microorganisms tested [18] [µg/mL] | surface morphology under FE-SEM (E. coli and S. aureus) | MIC S. epidermidis (S. epidermidis [19]) [µg/mL] | further results |
| --- | --- | --- | --- | --- | --- | --- | --- | --- | --- | --- | --- | --- | --- | --- | --- | --- | --- | --- | --- | --- | --- |
| CC[C@H](C)[C@H](N)C(=O)N[C@@H](CCCNC(=N)N)C(=O)N[C@H](C(=O)N[C@@H](CCCCN)C(=O)N[C@H](C(=O)N[C@@H](CCCNC(=N)N)C(=O)N[C@H](C(=O)N[C@@H](CCCCN)C(=O)N[C@H](C(=O)N[C@@H](CCCNC(=N)N)C(=O)N[C@H](C(=O)N[C@@H](CCCCN)C(N)=O)C(C)C)[C@@H](C)CC)C(C)C)[C@@H](C)CC)C(C)C [(IRVK)3-NH2] (H-IRVKIRVKIRVK-NH2; N-terminus assumed) | 125 (≈ 82.9 µM) | 62.5 (≈ 41.5 µM) | reduced in a dose-dependent manner | 125 (≈ 82.9 µM) | >125^e) mg L^−1 | 7.8 (≈ 5.18 µM) | 31.3 (≈ 20.8 µM) | 62.5 (≈ 41.5 µM) | 35.2 | 31.3 (≈ 20.8 µM) | 47.3 | 15.6 (≈ 10.4 µM) | 15.6 (≈ 10.4 µM) | 15.6 (≈ 10.4 µM) | 2.0 (≈ 1.33 µM) | 15.6 (≈ 10.4 µM) | 15.6 (≈ 10.4 µM) | 47.3 | rough and uneven | 2.0 (≈ 1.33 µM) | MIC M. tuberculosis ([11]; strain number 1140): 15.6 µg/mL (≈ 10.4 µM); MIC M. tuberculosis ([11]; strain number 1146): >31.3 µg/mL; MBC A. baumanni (A. baumanni; clinical isolate, multidrug resistant): 15.6 µg/mL (≈ 10.4 µM); nitrite concentration, LPS-stimulated NO production [17]: reduced to the control level; killing of S. aureus residing in biofilms (S. aureus biofilms [20]): dose-dependent killing |
| CC[C@H](C)[C@H](N)C(=O)N[C@@H](CCCNC(=N)N)C(=O)N[C@H](C(=O)N[C@@H](CCCCN)C(=O)N[C@H](C(=O)N[C@@H](CCCNC(=N)N)C(=O)N[C@H](C(=O)N[C@@H](CCCCN)C(N)=O)[C@@H](C)CC)[C@@H](C)CC)[C@@H](C)CC [(IRIK)2-NH2] (H-IRIKIRIK-NH2; N-terminus assumed) | 3.9 (≈ 3.76 µM) | 31.3 (≈ 30.1 µM) | reduced in a dose-dependent manner | 3.9 (≈ 3.76 µM) | 2000 mg/L | 15.6 (≈ 15 µM) | 62.5 (≈ 60.2 µM) | 31.3 (≈ 30.1 µM) | 35.2 | 62.5 (≈ 60.2 µM) | 23.4 | 7.8 (≈ 7.51 µM) | 31.3 (≈ 30.1 µM) | 15.6 (≈ 15 µM) | 3.9 (≈ 3.76 µM) | 15.6 (≈ 15 µM) | 7.8 (≈ 7.51 µM) | 23.4 | rough and uneven | 3.9 (≈ 3.76 µM) | fungal cells eradicated from the biofilms compared to the untreated control group (C. albicans keratitis; C. albicans counts in mice cornea, agar plating): ~90%; depth of hyphal invasion into the cornea, PAS histology (C. albicans keratitis; [22]): reduced the maximal depth of hyphal invasion; resolution of the keratitis infection (eye appearance) (C. albicans keratitis; [22]): significant resolution of the keratitis infection; clinical scores of mice corneas (slit lamp) (C. albicans keratitis; topical eye drops, peptides 3000 mg/L, amphotericin B 1000 mg/L, P<0.01): significantly lower than that in the control group; antimicrobial activity after protease treatment (trypsin and proteinase K): complete loss in bacterial inhibitory activities; structural integrity after protease treatment, MALDI-TOF MS (trypsin and proteinase K): degradation of the intact peptide; MBC A. baumanni (A. baumanni): 125 µg/mL (≈ 120 µM); MIC F. solani (F. solani): 31.3 µg/mL (≈ 30.1 µM); killing of S. aureus residing in biofilms (S. aureus biofilms [20]): dose-dependent killing; cell viability of S. aureus in biofilms (S. aureus biofilms [20]; Staphylococcus aureus, 4 ×MIC): less than 10% |
| CC1(C)S[C@@H]2[C@H](NC(=O)Cc3ccccc3)C(=O)N2[C@H]1C(=O)O [penicillin G, reference compound] | – | – | – | – | – | – | – | – | – | – | – | – | – | – | – | – | – | – | – | – | MICn/MIC0, fold increase in MIC (S. aureus [21]): 32 |
